Here are results for two compounds from EP3390415B1, “(R)- AND (S)-1-(3-(3-N,N-DIMETHYLAMINOCARBONYL)PHENOXYL-4-NITROPHENYL)-1-ETHYL-N,N'-BIS (ETHYLENE)PHOSPHORAMIDATE, COMPOSITIONS AND METHODS FOR THEIR USE AND PREPARATION” (OBI PHARMA, INC., priority 2015, dated 2017).

Data set [1] deals with HepG2-GFP human hepatocellular carcinoma. Kind of data set: Orthotopic mouse model of human liver cancer, tumor burden. The note with it: 30mg/kg, Qdx35, Gavages. It counts as in vivo, athymic nude mice. How it is done:
Female athymic nude mice (6 weeks of age) were used in this study. The animals were purchased from Beijing HFK Bioscience, Co., Ltd and maintained in a High Efficiency Particulate Air Filter (HEPA) filtered environment with cages, food, and bedding sterilized by irradiation or autoclaving. A total of 32 nude mice were used for the study. HepG2-GFP human hepatocellular carcinoma cells (AntiCancer, Inc., San Diego, CA) were incubated with RPMI-1640 (Gibco-BRL, Life Technologies, Inc.), which contained 10% FBS. Cells were grown in a CO2 Water Jacketed Incubator (Forma Scientific) maintaining 37°C and a 5% CO2/95% air atmosphere. Cell viability was determined by trypan blue exclusion analysis. Five female athymic nude mice were injected subcutaneously with a single dose of 5 x 10^6 HepG2-GFP cells. Tumors were harvested when their size reached 1cm^3 and the tumor tissues were then cut into small fragments of 1mm^3. Forty female nude mice were implanted orthotopically with a single piece of tumor fragment, which was derived from a subcutaneous tumor model of HepG2-GFP human hepatocellular carcinoma. The tumor tissue was orthotopically implanted in the right lobe of the liver in each mouse by SOI (Surgical Orthotopic Implantation). Briefly, an upper abdominal incision of 1cm was made under anesthesia. Right lobe of the liver was exposed and a part of the liver surface was injured mechanically by scissors. Then a piece of tumor fragment was fixed within the liver tissue, the liver was returned to the peritoneal cavity and the abdominal wall finally closed. Mice were kept in laminar-flow cabinets under specific pathogen-free-conditions.
Treatment was started three days after tumor implantation when the implanted tumors reached an average size of around 1 mm^2. The 32 tumor-bearing mice were randomly divided into four experimental groups of 8 mice each. Each cage was clearly marked for its group with four mice per cage. […] Table. Groups and treatment protocol
During the period of the study, all of the experimental mice were checked daily for mortality or signs of morbidity. […] The body weights of the mice were measured twice weekly during the study period. Images of tumor growth and progression were acquired twice a week during the period of the study with the FluorVivo imaging system, Model 300/Mag (INDEC, CA, USA). […] Livers were exposed for imaging, after which the tumors were removed and weighted with an electronic balance (Sartorius BS 124 S, Germany). Tumor tissues were kept in formalin for further analysis. Comparisons of body weights and tumor burdens in different groups were analyzed using the Student's t-test with an α = 0.05 (two-sided). After intravenously injection of the test agents, the mice had no lying, no autonomous activity reduction. The experimental animals were generally in good condition. Table. Comparison of mean mice body weight at the end of the study
The progressions of orthotopic HepG2-GFP hepatocellular carcinoma in different groups were monitored by real time imaging. Images were acquired twice a week. Typical tumor images at the end of the study in each group and tumor growth curves derived from the signals of tumor fluorescence, which were analyzed using the Power Station software (INDEC Biosystems, CA, USA), are shown in figure 6 and figure 7, respectively Table. Average tumor size in each group (mm2)

Data set [2] is described as follows: Body weight and toxicity in the orthotopic liver cancer mouse model. The data set is classed as in vivo, athymic nude mice. The settings on record: mouse, in vivo.
The test system of data set [3] is A375 melanoma human tumor xenograft. Put plainly: In vivo human tumor xenograft model, antitumor activity. On the set-up: species or system nude mice. The note with it: 2.5mpk,qdx5x2,ip. The text has this:
Specific pathogen-free homozygous female nude mice (nu/nu, Charles River Laboratories) were used. Mice were given food and water ad libitum and housed in microisolator cages. Four to six week old animals were identified by microchips (Locus Technology, Manchester, MD, USA) at the time of the experiments. All animal studies were approved by the Institutional Animal Care and Use Committee at Threshold Pharmaceuticals, Inc.
All cell lines were from the American Type Culture Collection (ATCC, Rockville, MD, USA).
Cells were mixed with Matrigel (30% in H460) and 0.2 ml per mouse were subcutaneously implanted to the flank area of the animals. When tumor size reached 100-150 mm^3, mice were randomized into experimental or vehicle groups with 10 mice/group and treatment was started (Day 1). The tested compounds were formulated in 5% DMSO in D5W. All compounds were given by IP, QDx5/wk (5 days on, 2 days off) as one cycle, for a total of 2 cycles. Tumor growth and body weight were measured twice a week. Tumor volume was calculated as (length x width^2)/2. Drug efficacy was assessed as Tumor Growth Inhibition (TGI) and Tumor Growth Delay (TGD). TGI was defined as (1-ΔT/ΔC) x 100, where ΔT/ΔC presented the ratio of the change in mean (or median, if variation within the group was relatively large) tumor volume of the treated group and of the control group. TGD was calculated as the extra days for the treated tumor to reach 500mm^3 as compared to the control group. Animals were culled when individual tumor size reached over 2000mm^3 or mean tumor volume exceeded 1000mm^3 in the group. Data are expressed as the mean ± SEM. One-way analysis of variance with Dunnett post comparison test (GraphPad Prism 4) or two-tailed student's t-test were used for analysis. A P level < 0.05 was considered statistically significant.
This study employed an A375 melanoma human tumor xenograft model and the compounds provided herein were compared to thiotepa and the approved anti melanoma drug, Abraxane. […] Mpk refers to mg/kg.

Turning to `CNC(=O)c1cc(Oc2ccc(NC(=O)Nc3ccc(Cl)c(C(F)(F)F)c3)cc2)ccn1` [Sorafenib, reference compound], in data set [1], the “Tumor weight (g) (mean ± sd)” value amounted to 0.0637 ± 0.0389 g. In data set [1] (fluorescence imaging), the “Tumor area (mm^2) (mean ± sd)” value turned out to be 8.2 ± 5.3 mm^2. For the same compound, the “tumor inhibition rate IR(%)” value in data set [1] (from final average tumor weights) is on record as 58.7%. In data set [2], the “toxicity to the experimental mice” value is “a certain degree of toxicity”.
Consider `S=P(N1CC1)(N1CC1)N1CC1` [Thio-TEPA, thiotepa], for which, in data set [3], the “Days to 500 mm^3” value was found to be 18 days; the “Days to 1000 mm^3” value was found to be 27 days; the “TGD500, Days (vs. vehicle)” value was 3 days; the “TGD1000, Days (vs. vehicle)” value worked out at 2 days. In addition, the tumour growth inhibition (TGI) in data set [3] was determined as 16.6%.

What is called TGI is the reduction of tumour growth relative to the control group. Read a high TGI as a stronger effect on the tumour.
